Laboratory results: patent publication US11458189B2, “Cytoprotective drugs” (BALMES TRANSPLANTATION, priority 2017, dated 2022)
Starred links: 1 amine or outer side, 2 acyl side, 3 side chain; linkers in the order of their positions; H or OH if unused. Positions of bridges follow the written chain, without caps; N, C: chain ends. Non-standard residues stand in square brackets, D forms with d. Residues, ends and D or L forms follow the SMILES beside them. *: point of attachment. hTyr(3S-OH,4S-OH,3'-OSO3H) = N[C@H](C(=O)O)[C@H](O)[C@@H](O)c1ccc(O)c(OS(=O)(=O)O)c1; Orn(4R-OH,5R-OH) = O=C([C@H](C[C@@H](O)[C@@H](O)N[*:3])N[*:1])[*:2]; Pro(3S-OH,4S-Me) = C[C@H]1CN[C@H](C(=O)O)[C@H]1O; X1 = CCCCCOc1ccc(-c2cc(-c3ccc(C(=O)*)cc3)no2)cc1; Gln(3R-OH) = NC(=O)C[C@@H](O)[C@H](N)C(=O)O; Hyp = O=C(O)[C@@H]1C[C@@H](O)CN1

System: Bovine Brain Microvascular Endothelial Cells (BBMEC)
Experiment: Oxygen and glucose deprivation followed by replenishment, cell survival (calcein AM), BBMEC
Type: cell-based
Protocol: Anidulafungin and micafungin were tested on Human Renal Glomerular Endothelial Cells (HRGEC, Innoprot P10665), on Human Renal Proximal Tubular Epithelial Cells (HRPTEpiC, Innoprot P10662), on Human Astrocytes (HA, caltag SC-1800), on Human Cardiac Microvascular Endothelial Cells (HCMEC, Caltag SC-6000), on Human Hepatic Sinusoidal Endothelial Cells (HHSEC, Caltag SC-5000), on Rat Primary Kidney Glomerular Endothelial cells (Cellbiologics, RN-6014G) and on Bovine Brain Microvascular Endothelial Cells (BBMEC, Caltag SC-B100).
In a first phase, these isolated, purified and cryopreserved cells are thawed and multiplied according to the supplier's recommendations in T75 or T175 flasks pre-coated with 2 μg of fibronectin/[…] (CORNING) for HRGEC, HCMEC, HHSEC and BBMEC, or 2 μg poly-L-lysin/cm^2 (Caltag SC-0403) for HRPTEpiC and HA, or 15 mL/flask 175 cm^2 gelatin-based solution (Cellbiologics) in the presence of endothelial cell supplemented growth medium ECM (P60104, INNOPROT, Caltag, SC-1001) for HRGEC, HCMEC, HHSEC, RPKGEC or BBMEC, or astrocyte cell supplemented growth medium AM (Caltag SC-1801) for HA or epithelial cell supplemented growth medium EpiCM (P60106, INNOPROT) for HRPTEpiC, at 37° C. under 5% CO2 and saturated humidity until their confluency. They are then harvested by trypsinization according to the method described by the supplier for exactly 5 minutes and then reseeded in new flasks a maximum of three times.
To carry out the oxygen and glucose deprivation test followed by their replenishment, the cells will be seeded in 96-well black plates with transparent flat bottom (GREINER). Once a sufficient number of cells has been obtained to allow seeding of 2000 to 15000 cells per well of 96-well plates depending on the cell type, the cells are seeded in these 96-well plates previously coated with an extracellular matrix as listed above for the flasks. The cells are cultured for 5 to 8 days according to the cell type, in the presence of the same growth medium as in the flask as described above except for HRGEC and HRPTEpiC for which DMEM (DUTSCHER) with 1 g/L of supplemented glucose is used, at 37° C. under 5% CO2 and saturated humidity to obtain confluency.
On the first day of oxygen and glucose deprivation, (5th, 6th, 7th or 8th day of culture), the culture conditions are drastically changed. The medium of all plates is removed and replaced by DMEM (DUTSCHER) medium without glucose and supplemented only with 1% penicillin-streptomycin (DUTSCHER). Anidulafungin or micafungin dissolved in dimethyl sulfoxide (DMSO) is then added to each well at the desired concentration, resulting in a maximum of 1% DMSO, and the plates are placed under hypoxia at <1% 02 and 5% CO2 at 37° C. for 24 hours of culture. Each compound was tested in a concentration range.
After 24 hours, the growth medium is changed and replaced by a richer medium, DMEM (DUTSCHER) at 1 g/L glucose and 2% FBS (INNOPROT) and 1% penicillin-streptomycin (DUTSCHER). These media will have been pre-equilibrated at 37° C. in advance. The cells are then returned to culture at 37° C. under 20% 02 and 5% CO2 for 22h.
After 22 hours of reoxygenation, the potential protective effect of anidulafungin or micafungin is measured by a cell viability test using calcein AM (CORNING), which is a dye substrate. The calcein AM can easily cross the cell membrane of the viable cells. The AM ester groups mask the part of the molecule that chelates calcium. Once inside the cells, the (non-fluorescent) calcein AM is hydrolyzed to (fluorescent) calcein by endogenous esterases. The resulting calcein molecule binds to calcium inside the cell and remains trapped inside the cell. These molecules emit strong green fluorescence when subjected to […] of a particular wavelength (495 nm). Since dead cells lack esterase activity, only living cells are labelled.
This cell viability test is performed in two steps. […]

CCCCCOc1ccc(-c2cc(-c3ccc(C(=O)N[C@H]4C[C@@H](O)[C@@H](O)NC(=O)[C@@H]5[C@@H](O)[C@@H](C)CN5C(=O)[C@H]([C@H](O)CC(N)=O)NC(=O)[C@H]([C@H](O)[C@@H](O)c5ccc(O)c(OS(=O)(=O)O)c5)NC(=O)[C@@H]5C[C@@H](O)CN5C(=O)[C@H]([C@@H](C)O)NC4=O)cc3)no2)cc1 [Micafungin, {5-[(1S,2S)-2-[(3S,6S,9S,11R,15S,18S,20R,21R,24S,25S,26S)-3-[(1R)-2-carbamoyl-1-hydroxyethyl]-11,20,21,25-tetrahydroxy-15-[(1R)-1-hydroxyethyl]-26-methyl-2,5,8,14,17,23-hexaoxo-18-[(4-{5-[4-(pentyloxy)phenyl]-1,2-oxazol-3-yl}benzene)amido]-1,4,7,13,16,22-hexaazatricyclo[22.3.0.0]heptacosan-6-yl]-1,2-dihydroxyethyl]-2-hydroxyphenyl}oxidanesulfonic acid] (X1-[Orn(4R-OH,5R-OH)]T[Hyp][hTyr(3S-OH,4S-OH,3'-OSO3H)][Gln(3R-OH)][Pro(3S-OH,4S-Me)]; lactam 1-C)
Globalfluo assay 1 ([Micafungin] log μM 0): 1369504 arbitrary units | Globalfluo assay 2 ([Micafungin] log μM 0): 1354112 arbitrary units | Globalfluo assay 3 ([Micafungin] log μM 0): 1230715 arbitrary units | Mean globalfluo ([Micafungin] log μM 0): 1318110 arbitrary units | Survival rate (%) ([Micafungin] log μM 0): 23% | Globalfluo assay 1 ([Micafungin] log μM 0.4771213): 2106751 arbitrary units | Globalfluo assay 2 ([Micafungin] log μM 0.4771213): 1655153 arbitrary units | Globalfluo assay 3 ([Micafungin] log μM 0.4771213): 1618365 arbitrary units | Mean globalfluo ([Micafungin] log μM 0.4771213): 1793423 arbitrary units | Survival rate (%) ([Micafungin] log μM 0.4771213): 46% | Globalfluo assay 1 ([Micafungin] log μM 0.7781513): 1732851 arbitrary units | Globalfluo assay 2 ([Micafungin] log μM 0.7781513): 1742799 arbitrary units | Globalfluo assay 3 ([Micafungin] log μM 0.7781513): 1796080 arbitrary units | Mean globalfluo ([Micafungin] log μM 0.7781513): 1757243 arbitrary units | Survival rate (%) ([Micafungin] log μM 0.7781513): 44% | Globalfluo assay 1 ([Micafungin] log μM 0.90309): 3787727 arbitrary units | Globalfluo assay 2 ([Micafungin] log μM 0.90309): 1942995 arbitrary units | Globalfluo assay 3 ([Micafungin] log μM 0.90309): 2729816 arbitrary units | Mean globalfluo ([Micafungin] log μM 0.90309): 2820179 arbitrary units | Survival rate (%) ([Micafungin] log μM 0.90309): 96% | Globalfluo assay 1 ([Micafungin] log μM 1): 3519337 arbitrary units | Globalfluo assay 2 ([Micafungin] log μM 1): 3058877 arbitrary units | Globalfluo assay 3 ([Micafungin] log μM 1): 3179364 arbitrary units | Mean globalfluo ([Micafungin] log μM 1): 3252526 arbitrary units | Survival rate (%) ([Micafungin] log μM 1): 117% | Globalfluo assay 1 ([Micafungin] log μM 1.079181): 2865371 arbitrary units | Globalfluo assay 2 ([Micafungin] log μM 1.079181): 2913567 arbitrary units | Globalfluo assay 3 ([Micafungin] log μM 1.079181): 3561196 arbitrary units | Mean globalfluo ([Micafungin] log μM 1.079181): 3113378 arbitrary units | Survival rate (%) ([Micafungin] log μM 1.079181): 110% | Globalfluo assay 1 ([Micafungin] log μM 1.176091): 2994828 arbitrary units | Globalfluo assay 2 ([Micafungin] log μM 1.176091): 3496204 arbitrary units | Globalfluo assay 3 ([Micafungin] log μM 1.176091): 3106542 arbitrary units | Mean globalfluo ([Micafungin] log μM 1.176091): 3199191 arbitrary units | Survival rate (%) ([Micafungin] log μM 1.176091): 114% | Globalfluo assay 1 ([Micafungin] log μM 1.30103): 3526958 arbitrary units | Globalfluo assay 2 ([Micafungin] log μM 1.30103): 3025877 arbitrary units | Globalfluo assay 3 ([Micafungin] log μM 1.30103): 3586726 arbitrary units | Mean globalfluo ([Micafungin] log μM 1.30103): 3379854 arbitrary units | Survival rate (%) ([Micafungin] log μM 1.30103): 123% | Globalfluo assay 1 ([Micafungin] log μM 1.477121): 2506989 arbitrary units | Globalfluo assay 2 ([Micafungin] log μM 1.477121): 2361926 arbitrary units | Globalfluo assay 3 ([Micafungin] log μM 1.477121): 2557219 arbitrary units | Mean globalfluo ([Micafungin] log μM 1.477121): 2475378 arbitrary units | Survival rate (%) ([Micafungin] log μM 1.477121): 79% | Globalfluo assay 1 ([Micafungin] log μM −0.5228788): 1907644 arbitrary units | Globalfluo assay 2 ([Micafungin] log μM −0.5228788): 993296 arbitrary units | Globalfluo assay 3 ([Micafungin] log μM −0.5228788): 1867099 arbitrary units | Mean globalfluo ([Micafungin] log μM −0.5228788): 1589346 arbitrary units | Survival rate (%) ([Micafungin] log μM −0.5228788): 36% | Globalfluo assay 1 ([Micafungin] log μM −1): 1108584 arbitrary units | Globalfluo assay 2 ([Micafungin] log μM −1): 1249769 arbitrary units | Globalfluo assay 3 ([Micafungin] log μM −1): 1224251 arbitrary units | Mean globalfluo ([Micafungin] log μM −1): 1194201 arbitrary units | Survival rate (%) ([Micafungin] log μM −1): 17% | Globalfluo assay 1 ([Micafungin] log μM −2): 1778372 arbitrary units | Globalfluo assay 2 ([Micafungin] log μM −2): 817005 arbitrary units | Globalfluo assay 3 ([Micafungin] log μM −2): 1173090 arbitrary units | Mean globalfluo ([Micafungin] log μM −2): 1256156 arbitrary units | Survival rate (%) ([Micafungin] log μM −2): 20%
